Test results from ChEMBL document CHEMBL1144750, “Scaffold oriented synthesis. Part 2: Design, synthesis and biological evaluation of pyrimido-diazepines as receptor tyrosine kinase inhibitors” (Bioorg Med Chem Lett, 2008).

Key:
[1] = target: Serine/threonine-protein kinase PAK 4 (Homo sapiens, UniProt O96013); assay: Inhibition of Pak4
[2] = target: Serine/threonine-protein kinase PLK1 (Homo sapiens, UniProt P53350); assay: Inhibition of Plk1
[3] = target: RAC-alpha serine/threonine-protein kinase (Homo sapiens, UniProt P31749); assay: Inhibition of Akt1
[4] = target: T1, Vascular endothelial growth factor receptor 2 (Homo sapiens, UniProt P35968); assay: Inhibition of KDR in presence of 10 uM ATP
[5] = Inhibition of CK2
[6] = target: Mast/stem cell growth factor receptor Kit (Homo sapiens, UniProt P10721); assay: Inhibition of cKit
[7] = target: T1, Vascular endothelial growth factor receptor 2; assay: Inhibition of KDR in presence of 1 mM ATP
[8] = target: Vascular endothelial growth factor receptor 2 (Mus musculus, UniProt P35918); assay: Inhibition of VEGF-induced KDR phosphorylation in mouse 3T3 cells; format: cell-based, NIH3T3
[9] = target: T2, Receptor-type tyrosine-protein kinase FLT3 (Homo sapiens, UniProt P36888); assay: Inhibition of Flt3
T2 sequence (P36888 whole entry): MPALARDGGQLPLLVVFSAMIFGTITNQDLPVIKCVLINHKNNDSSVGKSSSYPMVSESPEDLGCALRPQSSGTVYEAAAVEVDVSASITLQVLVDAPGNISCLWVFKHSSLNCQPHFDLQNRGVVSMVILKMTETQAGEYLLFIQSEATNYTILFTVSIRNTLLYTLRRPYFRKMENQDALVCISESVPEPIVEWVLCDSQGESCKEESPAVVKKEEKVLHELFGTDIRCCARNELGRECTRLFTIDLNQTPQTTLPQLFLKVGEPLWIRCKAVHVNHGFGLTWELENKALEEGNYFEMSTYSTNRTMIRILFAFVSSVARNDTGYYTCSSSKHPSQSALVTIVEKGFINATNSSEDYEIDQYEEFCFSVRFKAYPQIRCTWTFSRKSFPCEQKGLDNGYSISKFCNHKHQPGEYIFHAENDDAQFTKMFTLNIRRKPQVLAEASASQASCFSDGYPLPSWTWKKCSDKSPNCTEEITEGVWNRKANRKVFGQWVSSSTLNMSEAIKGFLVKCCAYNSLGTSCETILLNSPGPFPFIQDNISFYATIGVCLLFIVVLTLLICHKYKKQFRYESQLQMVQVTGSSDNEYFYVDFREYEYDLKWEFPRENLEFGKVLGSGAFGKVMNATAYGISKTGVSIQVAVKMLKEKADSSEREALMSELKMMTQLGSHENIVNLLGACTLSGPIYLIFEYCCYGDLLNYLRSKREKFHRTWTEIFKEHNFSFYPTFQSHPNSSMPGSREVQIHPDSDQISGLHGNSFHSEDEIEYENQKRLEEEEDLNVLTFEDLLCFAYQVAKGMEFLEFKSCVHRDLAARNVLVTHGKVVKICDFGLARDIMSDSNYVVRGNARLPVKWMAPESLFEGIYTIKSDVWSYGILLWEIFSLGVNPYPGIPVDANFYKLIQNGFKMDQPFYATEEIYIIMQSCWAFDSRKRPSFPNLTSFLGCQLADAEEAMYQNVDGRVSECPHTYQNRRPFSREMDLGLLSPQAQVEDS

[10] = Inhibition of CK2 at 100 uM

Chain of Serine/threonine-protein kinase PAK 4 (O96013 whole entry): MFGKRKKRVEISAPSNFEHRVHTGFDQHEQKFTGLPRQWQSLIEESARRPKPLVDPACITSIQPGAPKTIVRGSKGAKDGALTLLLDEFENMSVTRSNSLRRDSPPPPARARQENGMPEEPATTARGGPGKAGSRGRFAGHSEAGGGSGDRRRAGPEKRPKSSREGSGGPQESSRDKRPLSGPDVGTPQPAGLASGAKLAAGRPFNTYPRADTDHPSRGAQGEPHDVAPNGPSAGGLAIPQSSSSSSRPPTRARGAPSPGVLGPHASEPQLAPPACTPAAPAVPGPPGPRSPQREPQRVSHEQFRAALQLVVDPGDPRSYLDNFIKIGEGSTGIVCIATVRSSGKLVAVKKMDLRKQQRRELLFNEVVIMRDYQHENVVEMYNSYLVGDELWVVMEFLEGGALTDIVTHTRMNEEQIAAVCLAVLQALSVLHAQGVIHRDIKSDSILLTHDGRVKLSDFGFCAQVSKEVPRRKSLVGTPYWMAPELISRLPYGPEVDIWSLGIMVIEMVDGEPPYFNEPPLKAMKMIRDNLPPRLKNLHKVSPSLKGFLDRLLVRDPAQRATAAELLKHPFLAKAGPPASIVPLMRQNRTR
T1 sequence (P35968 whole entry): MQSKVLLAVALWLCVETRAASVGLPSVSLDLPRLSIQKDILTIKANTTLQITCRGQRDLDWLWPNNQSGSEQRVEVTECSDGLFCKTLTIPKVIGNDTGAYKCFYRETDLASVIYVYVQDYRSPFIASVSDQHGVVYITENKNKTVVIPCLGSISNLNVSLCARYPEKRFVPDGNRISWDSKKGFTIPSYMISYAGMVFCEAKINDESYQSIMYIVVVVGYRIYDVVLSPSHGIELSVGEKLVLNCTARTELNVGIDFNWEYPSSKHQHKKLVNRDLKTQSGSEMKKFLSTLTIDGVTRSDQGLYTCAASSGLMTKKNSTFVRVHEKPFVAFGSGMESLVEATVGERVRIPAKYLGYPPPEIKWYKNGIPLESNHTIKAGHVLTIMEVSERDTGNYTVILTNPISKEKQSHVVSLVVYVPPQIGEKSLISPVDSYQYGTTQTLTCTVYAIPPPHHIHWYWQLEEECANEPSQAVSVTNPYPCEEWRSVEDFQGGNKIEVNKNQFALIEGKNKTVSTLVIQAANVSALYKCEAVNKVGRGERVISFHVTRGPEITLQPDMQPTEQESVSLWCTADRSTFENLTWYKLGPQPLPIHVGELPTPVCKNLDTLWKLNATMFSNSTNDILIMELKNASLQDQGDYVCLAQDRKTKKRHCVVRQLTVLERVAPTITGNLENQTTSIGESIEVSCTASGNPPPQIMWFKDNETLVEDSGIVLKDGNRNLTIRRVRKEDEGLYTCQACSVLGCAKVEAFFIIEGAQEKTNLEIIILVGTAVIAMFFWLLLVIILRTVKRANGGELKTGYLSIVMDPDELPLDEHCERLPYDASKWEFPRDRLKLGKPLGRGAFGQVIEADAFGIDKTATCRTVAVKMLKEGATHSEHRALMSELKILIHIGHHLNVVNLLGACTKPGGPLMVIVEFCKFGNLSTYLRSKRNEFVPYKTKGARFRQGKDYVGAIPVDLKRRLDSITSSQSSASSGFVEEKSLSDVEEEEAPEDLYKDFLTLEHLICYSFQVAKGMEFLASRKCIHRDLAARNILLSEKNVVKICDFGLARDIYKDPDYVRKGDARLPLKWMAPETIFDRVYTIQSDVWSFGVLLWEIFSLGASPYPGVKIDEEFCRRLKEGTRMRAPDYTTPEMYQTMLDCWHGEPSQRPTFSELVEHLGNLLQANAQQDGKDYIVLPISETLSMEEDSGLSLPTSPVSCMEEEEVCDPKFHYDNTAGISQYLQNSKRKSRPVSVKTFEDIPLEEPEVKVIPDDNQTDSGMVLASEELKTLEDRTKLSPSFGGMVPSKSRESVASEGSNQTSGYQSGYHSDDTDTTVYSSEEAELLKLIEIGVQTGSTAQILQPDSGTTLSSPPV
Chain of Mast/stem cell growth factor receptor Kit (P10721 whole entry): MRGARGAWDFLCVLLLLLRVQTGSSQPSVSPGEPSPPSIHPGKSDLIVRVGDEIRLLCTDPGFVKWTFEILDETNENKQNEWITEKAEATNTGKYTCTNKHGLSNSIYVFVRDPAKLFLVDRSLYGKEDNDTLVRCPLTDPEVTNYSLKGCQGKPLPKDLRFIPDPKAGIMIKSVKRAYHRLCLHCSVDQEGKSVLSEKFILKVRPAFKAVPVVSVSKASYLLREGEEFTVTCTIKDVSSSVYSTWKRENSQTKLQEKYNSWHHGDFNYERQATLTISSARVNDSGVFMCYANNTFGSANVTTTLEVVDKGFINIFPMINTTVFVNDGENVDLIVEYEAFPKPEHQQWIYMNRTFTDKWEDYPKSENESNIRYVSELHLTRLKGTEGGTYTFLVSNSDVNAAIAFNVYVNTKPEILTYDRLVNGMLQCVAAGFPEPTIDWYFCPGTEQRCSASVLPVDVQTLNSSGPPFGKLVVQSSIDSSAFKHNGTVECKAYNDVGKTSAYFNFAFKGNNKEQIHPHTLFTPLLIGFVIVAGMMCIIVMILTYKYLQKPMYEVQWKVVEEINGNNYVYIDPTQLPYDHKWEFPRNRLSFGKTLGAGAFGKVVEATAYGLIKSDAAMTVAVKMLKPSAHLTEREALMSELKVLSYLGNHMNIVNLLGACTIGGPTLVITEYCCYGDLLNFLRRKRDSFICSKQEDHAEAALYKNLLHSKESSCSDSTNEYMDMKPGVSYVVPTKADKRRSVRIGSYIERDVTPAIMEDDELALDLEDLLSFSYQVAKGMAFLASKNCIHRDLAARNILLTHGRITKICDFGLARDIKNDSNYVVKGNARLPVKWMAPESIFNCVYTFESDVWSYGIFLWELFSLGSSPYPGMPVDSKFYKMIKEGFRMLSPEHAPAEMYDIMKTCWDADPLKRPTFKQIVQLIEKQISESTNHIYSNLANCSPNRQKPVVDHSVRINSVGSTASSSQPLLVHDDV
Chain of RAC-alpha serine/threonine-protein kinase (P31749 whole entry): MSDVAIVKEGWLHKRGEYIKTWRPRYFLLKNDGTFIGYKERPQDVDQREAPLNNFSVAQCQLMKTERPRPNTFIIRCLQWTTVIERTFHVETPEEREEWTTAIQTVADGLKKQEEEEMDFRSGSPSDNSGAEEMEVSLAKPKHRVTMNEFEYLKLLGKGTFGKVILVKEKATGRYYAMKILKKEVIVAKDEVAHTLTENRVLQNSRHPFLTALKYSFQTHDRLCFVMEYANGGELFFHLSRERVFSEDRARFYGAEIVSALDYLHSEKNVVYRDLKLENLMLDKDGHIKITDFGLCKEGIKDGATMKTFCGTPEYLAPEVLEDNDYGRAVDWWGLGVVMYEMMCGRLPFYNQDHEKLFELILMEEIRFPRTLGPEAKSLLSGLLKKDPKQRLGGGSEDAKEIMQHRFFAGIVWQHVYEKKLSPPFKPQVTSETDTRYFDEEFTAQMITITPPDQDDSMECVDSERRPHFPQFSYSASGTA
Chain of Vascular endothelial growth factor receptor 2 (Mus musculus, UniProt P35918) (P35918 whole entry): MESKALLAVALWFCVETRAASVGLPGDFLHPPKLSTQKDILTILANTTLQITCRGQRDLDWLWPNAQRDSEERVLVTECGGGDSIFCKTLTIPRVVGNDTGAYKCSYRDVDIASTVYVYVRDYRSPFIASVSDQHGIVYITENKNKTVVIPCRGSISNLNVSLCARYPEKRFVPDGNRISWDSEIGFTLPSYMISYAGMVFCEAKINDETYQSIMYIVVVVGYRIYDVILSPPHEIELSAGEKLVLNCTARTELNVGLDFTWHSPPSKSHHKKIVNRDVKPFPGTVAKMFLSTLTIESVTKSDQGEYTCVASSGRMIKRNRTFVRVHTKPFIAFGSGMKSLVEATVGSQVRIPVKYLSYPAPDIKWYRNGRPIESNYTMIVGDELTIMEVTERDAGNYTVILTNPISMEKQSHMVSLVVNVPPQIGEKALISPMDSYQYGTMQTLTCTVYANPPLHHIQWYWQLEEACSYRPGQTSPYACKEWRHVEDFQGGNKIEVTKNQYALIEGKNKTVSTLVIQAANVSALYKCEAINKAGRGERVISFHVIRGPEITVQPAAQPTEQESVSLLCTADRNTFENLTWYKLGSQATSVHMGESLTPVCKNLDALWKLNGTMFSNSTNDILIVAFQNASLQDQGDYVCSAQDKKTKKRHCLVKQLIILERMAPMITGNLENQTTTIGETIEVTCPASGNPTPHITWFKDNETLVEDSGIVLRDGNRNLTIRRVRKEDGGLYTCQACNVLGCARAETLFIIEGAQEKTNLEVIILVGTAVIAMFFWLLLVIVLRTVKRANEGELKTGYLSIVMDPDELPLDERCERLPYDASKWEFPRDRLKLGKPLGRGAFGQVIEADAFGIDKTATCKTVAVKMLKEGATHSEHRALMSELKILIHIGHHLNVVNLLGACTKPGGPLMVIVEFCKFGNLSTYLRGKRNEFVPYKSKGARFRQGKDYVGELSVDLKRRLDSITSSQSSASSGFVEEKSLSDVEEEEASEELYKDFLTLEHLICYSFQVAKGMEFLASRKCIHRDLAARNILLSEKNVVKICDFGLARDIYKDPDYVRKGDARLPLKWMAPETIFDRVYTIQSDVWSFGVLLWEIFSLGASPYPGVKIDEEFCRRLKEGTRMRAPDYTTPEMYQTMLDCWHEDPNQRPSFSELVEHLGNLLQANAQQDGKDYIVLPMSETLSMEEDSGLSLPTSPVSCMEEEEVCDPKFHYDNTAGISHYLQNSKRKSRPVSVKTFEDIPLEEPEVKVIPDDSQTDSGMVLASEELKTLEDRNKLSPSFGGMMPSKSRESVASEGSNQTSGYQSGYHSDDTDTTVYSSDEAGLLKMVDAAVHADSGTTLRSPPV

Row | Compound | IC50 [1] [µM] | IC50 [2] [µM] | IC50 [3] [µM] | IC50 [4] [µM] | IC50 [5] [µM] | IC50 [6] [µM] | IC50 [7] [µM] | IC50 [8] [µM] | IC50 [9] [µM] | inhibition [10] [%]
1 | Nc1nc(N)c2c(n1)NCCC(c1cccc(Cl)c1)=N2 | > 100 | > 100 | > 100 | 21 | – | – | – | – | – | –
2 | Cc1ccc(C2=Nc3c(N)ncnc3NCC2)cc1 | > 100 | > 100 | > 100 | 4 | > 100 | – | – | – | – | –
3 | Nc1nc(N)c2c(n1)NCCC(c1ccc(Cl)cc1)=N2 | > 100 | > 100 | > 100 | 9 | > 100 | – | – | – | – | –
4 | Nc1ncnc2c1N=C(c1ccccc1)CCN2 | > 100 | > 100 | 92 | 3 | 4 | – | – | – | – | –
5 | Nc1nc(N)c2c(n1)NCCC(c1ccc(NC(=O)Nc3ccccc3)cc1)=N2 | – | – | – | – | – | > 13 | 2.86 | – | 2.86 | –
6 | Cc1cccc(C2=Nc3c(N)ncnc3NCC2)c1 | > 100 | 50 | > 100 | 3 | 12 | – | – | – | – | –
7 | Nc1nc(N)c2c(n1)NCCC(c1ccccc1)=N2 | > 100 | > 100 | > 100 | 35 | > 100 | – | – | – | – | –
8 | Nc1ncnc2c1N=C(c1ccc(Cl)cc1)CCN2 | > 100 | > 100 | > 100 | 3 | > 100 | – | – | – | – | –
9 | Nc1ncnc2c1N=C(c1cccc(Cl)c1)CCN2 | > 100 | > 100 | > 100 | 0.6 | – | – | – | – | – | 64
10 | Nc1ncnc2c1N=C(c1cccc(NC(=O)Nc3ccccc3)c1)CCN2 | – | – | – | – | – | 3.02 | 0.888 | – | 2.7 | –

Next, values leading:

Row | IC50 [1] [µM] | IC50 [2] [µM] | IC50 [3] [µM] | IC50 [4] [µM] | IC50 [5] [µM] | IC50 [6] [µM] | IC50 [7] [µM] | IC50 [8] [µM] | IC50 [9] [µM] | inhibition [10] [%] | Compound
11 | – | – | – | – | – | 0.028 | 0.049 | 1.52 | 0.003 | – | Nc1ncnc2c1N=C(c1ccc(NC(=O)Nc3cccc(C(F)(F)F)c3F)cc1)CCN2
12 | – | – | – | – | – | 0.05 | 0.006 | 0.049 | 0.016 | – | Nc1ncnc2c1N=C(c1ccc(NC(=O)Nc3ccc(Cl)c(C(F)(F)F)c3)cc1)CCN2
13 | – | – | – | – | – | 0.035 | 0.11 | 2.44 | 0.009 | – | Nc1ncnc2c1N=C(c1ccc(NC(=O)Nc3ccc(C(F)(F)F)cc3)cc1)CCN2
14 | – | – | – | – | – | 0.037 | 0.065 | 0.311 | 0.013 | – | Cc1ccc(F)c(NC(=O)Nc2ccc(C3=Nc4c(N)ncnc4NCC3)cc2)c1
15 | – | – | – | – | – | – | 0.951 | – | – | – | Nc1ncnc2c1N=C(c1ccc(NC(=O)Nc3ccccc3)cc1)CCN2
16 | – | – | – | – | – | – | 0.004 | 0.121 | – | – | Nc1ncnc2c1N=C(c1ccc(NC(=O)Nc3cc(C(F)(F)F)ccc3F)cc1)CCN2
17 | – | – | – | – | – | 0.022 | 0.005 | 0.345 | 0.007 | – | Nc1ncnc2c1N=C(c1ccc(NC(=O)Nc3ccc(F)c(C(F)(F)F)c3)cc1)CCN2
18 | – | – | – | – | – | 0.018 | 0.019 | 0.05 | 0.006 | – | Nc1ncnc2c1N=C(c1ccc(NC(=O)Nc3cccc(Cl)c3)cc1)CCN2
19 | – | – | – | – | – | 0.091 | – | 0.79 | – | – | Nc1ncnc2c1N=C(c1cccc(NC(=O)Nc3cccc(C(F)(F)F)c3)c1)CCN2
20 | – | – | – | – | – | – | 0.003 | 0.013 | 0.002 | – | Nc1ncnc2c1N=C(c1ccc(NC(=O)Nc3cccc(C(F)(F)F)c3)cc1)CCN2
21 | – | – | – | – | – | 0.012 | – | 0.052 | – | – | Cc1ccc(C2=Nc3c(N)ncnc3NCC2)cc1NC(=O)Nc1cccc(C(F)(F)F)c1
